Measured values taken from ChEMBL document CHEMBL1149774, “Synthesis of N-(5,7-diamino-3-phenyl-quinoxalin-2-yl)-3,4,5-substituted anilines and N-[4[(5,7-diamino-3-phenylquinoxalin-2-yl)amino]benzoyl]-l-glutamic acid diethyl ester: evaluation of in vitro anti-cancer and anti-folate activities” (Eur J Med Chem, 2008).

Assays:
Type in all cases: functional
SK-MEL-28 = experiment: Growth inhibition of human SK-MEL-28 cells after 48 hrs by SRB staining method; settings: SK-MEL-28, 48 h
EKVX = experiment: Growth inhibition of human EKVX cells after 48 hrs by SRB staining method
OVCAR-5 = experiment: Growth inhibition of human OVCAR5 cells after 48 hrs by SRB staining method; settings: OVCAR-5, 48 h
HCT-15 = experiment: Growth inhibition of human HCT15 cells after 48 hrs by SRB staining method; settings: HCT-15, 48 h
NCI-H522 = experiment: Growth inhibition of human NCI-H522 cells after 48 hrs by SRB staining method; settings: NCI-H522, 48 h
HL-60 = experiment: Growth inhibition of human HL60 cells after 48 hrs by SRB staining method; settings: HL-60, 48 h
Malme-3M = experiment: Growth inhibition of human MALME-3M cells after 48 hrs by SRB staining method
MCF7 = experiment: Growth inhibition of human MCF7 cells after 48 hrs by SRB staining method; settings: MCF7, 48 h
SW-620 = experiment: Growth inhibition of human SW620 cells after 48 hrs by SRB staining method; settings: SW-620, 48 h
A498 = experiment: Growth inhibition of human A498 cells after 48 hrs by SRB staining method; settings: A498, 48 h
T47D = experiment: Growth inhibition of human T47D cells after 48 hrs by SRB staining method
786-0 = experiment: Growth inhibition of human 786-0 cells after 48 hrs by SRB staining method; settings: 786-0, 48 h
SK-OV-3 = experiment: Growth inhibition of human SKOV3 cells after 48 hrs by SRB staining method; settings: SK-OV-3, 48 h
SR = experiment: Growth inhibition of human SR cells after 48 hrs by SRB staining method
HOP-62 = experiment: Growth inhibition of human HOP62 cells after 48 hrs by SRB staining method; settings: HOP-62, 48 h
MDA-MB-435 = experiment: Growth inhibition of human MDA-MB-435 cells after 48 hrs by SRB staining method; settings: MDA-MB-435, 48 h
COLO 205 = experiment: Growth inhibition of human COLO205 cells after 48 hrs by SRB staining method; settings: COLO 205, 48 h
SK-MEL-5 = experiment: Growth inhibition of human SK-MEL-5 cells after 48 hrs by SRB staining method; settings: SK-MEL-5, 48 h
NCI-H460 = experiment: Growth inhibition of human NCI-H460 cells after 48 hrs by SRB staining method; settings: NCI-H460, 48 h
U-251 = experiment: Growth inhibition of human U251 cells after 48 hrs by SRB staining method; settings: U-251, 48 h
UO-31 = experiment: Growth inhibition of human UO31 cells after 48 hrs by SRB staining method; settings: UO-31, 48 h
RXF 393 = experiment: Growth inhibition of human RXF393 cells after 48 hrs by SRB staining method; settings: RXF 393, 48 h
M14 = experiment: Growth inhibition of human M14 cells after 48 hrs by SRB staining method; settings: M14, 48 h
TK-10 = experiment: Growth inhibition of human TK10 cells after 48 hrs by SRB staining method; settings: TK-10, 48 h
OVCAR-4 = experiment: Growth inhibition of human OVCAR4 cells after 48 hrs by SRB staining method; settings: OVCAR-4, 48 h
SF-295 = experiment: Growth inhibition of human SF295 cells after 48 hrs by SRB staining method; settings: SF-295, 48 h
DU-145 = experiment: Growth inhibition of human DU145 cells after 48 hrs by SRB staining method; settings: DU-145, 48 h
CAKI-1 = experiment: Growth inhibition of human CAKI1 cells after 48 hrs by SRB staining method; settings: CAKI-1, 48 h
HCT-116 = experiment: Growth inhibition of human HCT116 cells after 48 hrs by SRB staining method; settings: HCT-116, 48 h
UACC-257 = experiment: Growth inhibition of human UACC257 cells after 48 hrs by SRB staining method; settings: UACC-257, 48 h
OVCAR-3 = experiment: Growth inhibition of human OVCAR-3 cells after 48 hrs by SRB staining method; settings: OVCAR-3, 48 h
NCI-H322M = experiment: Growth inhibition of human NCI-H322M cells after 48 hrs by SRB staining method
[1] = read-out: pLC50 (the source's name) (converted)

## COc1cc(Nc2nc3cc(N)cc(N)c3nc2-c2ccccc2)cc(OC)c1OC
SK-MEL-28
  GI50: 1.45 µM
SK-MEL-28; [1]
  CC50: 63.1 µM
SK-MEL-28; read-out: pTGI (converted)
  TGI: 20.9 µM
EKVX
  GI50: 17.8 µM
EKVX; [1]
  CC50: > 100 µM
EKVX; read-out: pTGI (converted)
  TGI: 47.9 µM
OVCAR-5
  GI50: 21.4 µM
  LC50: > 100 µM
OVCAR-5; read-out: pTGI (converted)
  TGI: 46.8 µM
HCT-15
  GI50: 15.1 µM
  LC50: > 100 µM
HCT-15; read-out: pTGI (converted)
  TGI: 45.7 µM
NCI-H522
  GI50: 18.2 µM
  LC50: > 100 µM
NCI-H522; read-out: pTGI (converted)
  TGI: 53.7 µM
HL-60
  GI50: 6.61 µM
HL-60; [1]
  CC50: 64.6 µM
HL-60; read-out: pTGI (converted)
  TGI: 23.4 µM
Malme-3M
  GI50: 12.9 µM
  LC50: 61.7 µM
Malme-3M; read-out: pTGI (converted)
  TGI: 28.2 µM
MCF7
  GI50: 25.7 µM
MCF7; [1]
  CC50: > 100 µM
MCF7; read-out: pTGI (converted)
  TGI: 95.5 µM
SW-620
  GI50: 24 µM
SW-620; [1]
  CC50: > 100 µM
SW-620; read-out: pTGI (converted)
  TGI: > 100 µM
A498
  GI50: 31.6 µM
A498; [1]
  CC50: > 100 µM
A498; read-out: pTGI (converted)
  TGI: > 100 µM
T47D
  GI50: 6.03 µM
T47D; [1]
  CC50: 95.5 µM
T47D; read-out: pTGI (converted)
  TGI: 31.6 µM
786-0
  GI50: 14.5 µM
786-0; [1]
  CC50: > 100 µM
786-0; read-out: pTGI (converted)
  TGI: 40.7 µM
SK-OV-3
  GI50: 22.9 µM
SK-OV-3; [1]
  CC50: > 100 µM
SK-OV-3; read-out: pTGI (converted)
  TGI: 57.5 µM
SR
  GI50: 3.31 µM
SR; [1]
  CC50: 72.4 µM
SR; read-out: pTGI (converted)
  TGI: 15.8 µM
HOP-62
  GI50: 16.2 µM
  LC50: 72.4 µM
HOP-62; read-out: pTGI (converted)
  TGI: 34.7 µM
MDA-MB-435
  GI50: 7.41 µM
MDA-MB-435; [1]
  CC50: 69.2 µM
MDA-MB-435; read-out: pTGI (converted)
  TGI: 24.5 µM
COLO 205
  GI50: 14.1 µM
  LC50: 52.5 µM
COLO 205; read-out: pTGI (converted)
  TGI: 26.9 µM
SK-MEL-5
  GI50: 12.9 µM
  LC50: 58.9 µM
SK-MEL-5; read-out: pTGI (converted)
  TGI: 27.5 µM
NCI-H460
  GI50: 17 µM
  LC50 (concentration killing 50% of cells): > 100 µM
NCI-H460; read-out: pTGI (converted)
  TGI: 52.5 µM
U-251
  GI50: 24.5 µM
  LC50 (50% lethal concentration): > 100 µM
U-251; read-out: pTGI (converted)
  TGI: > 100 µM
UO-31
  GI50: 15.1 µM
UO-31; [1]
  CC50: > 100 µM
UO-31; read-out: pTGI (converted)
  TGI: 91.2 µM
RXF 393
  GI50: 14.5 µM
RXF 393; [1]
  CC50: 83.2 µM
RXF 393; read-out: pTGI (converted)
  TGI: 34.7 µM
M14
  GI50: 19.5 µM
  LC50: > 100 µM
M14; read-out: pTGI (converted)
  TGI: 44.7 µM
TK-10
  GI50: 24 µM
TK-10; [1]
  CC50: > 100 µM
TK-10; read-out: pTGI (converted)
  TGI: 66.1 µM
OVCAR-4
  GI50: 0.0316 µM
  LC50: 25.7 µM
OVCAR-4; read-out: pTGI (converted)
  TGI: 0.891 µM
SF-295
  GI50: 15.8 µM
  LC50: > 100 µM
SF-295; read-out: pTGI (converted)
  TGI: 42.7 µM
DU-145
  GI50: 21.9 µM
DU-145; [1]
  CC50: > 100 µM
DU-145; read-out: pTGI (converted)
  TGI: 74.1 µM
CAKI-1
  GI50: 15.5 µM
CAKI-1; [1]
  CC50: > 100 µM
CAKI-1; read-out: pTGI (converted)
  TGI: 49 µM
HCT-116
  GI50: 15.5 µM
  LC50: 75.9 µM
HCT-116; read-out: pTGI (converted)
  TGI: 33.9 µM
UACC-257
  GI50: 29.5 µM
  LC50: > 100 µM
UACC-257; read-out: pTGI (converted)
  TGI: > 100 µM
OVCAR-3
  GI50: 14.1 µM
  LC50: 97.7 µM
OVCAR-3; read-out: pTGI (converted)
  TGI: 37.2 µM
NCI-H322M
  LC50: > 100 µM
